Test results as given in US9227977B2, “Phosphoinositide 3-kinase inhibitors” (RESPIVERT LTD., priority 2013, dated 2016).
Like-named read-outs stand apart in the source and are kept apart here.

Tests used:
PI3K β = PI3K β (Homo sapiens (Human), UniProt P42338); assay: PI3K enzyme inhibition assay (HTRF TR-FRET); type: biochemical
Source text: (§1) The PI3K enzymes catalyse the phosphorylation of phosphatidylinositol 4,5-biphosphate (PIP2) to phosphatidylinositol 3,4,5-triphosphate (PIP3) in the presence of ATP and Mg^2+ ions. The PIP3 product can be detected by displacement of biotin-PIP3 from energy transfer complexes consisting of europium labelled anti-GST monoclonal antibody, a GST-tagged Pleckstrin homology (PH) domain, biotinylated PIP3 and streptavidin-allophycocyanin (APC) by the time-resolved fluorescence resonance energy transfer (TR-FRET) (HTRF®PI3K enzyme assay, Millipore). Excitation, at 330 nm, of europium in the complex results in an energy transfer to the APC and a fluorescent emission at 665 nm although europium itself emits at its characteristic wavelength of 620 nm. The PIP3 product formed by PI3K activity displaces biotin-PIP3 from the complex and results in a loss of energy transfer (decreasing signal).
(§2) The compound to be tested was added, at the desired final concentrations, to a mixture of PIP2 substrate and a recombinant PI3K enzyme (either α, β or δ isoforms, ex Millipore, or γ isoform [p110γ+p101 construct], ex United States Biological, Swampscott, Mass.) and the mixture incubated for 2 hr at RT. Following this incubation period, ATP (10 μM) was added to the enzyme/compound/PIP2 substrate mixture and the resulting mixture was incubated for a further 30 min at RT. A stopping solution containing biotinylated PIP3 and the detection mix containing the GST tagged GRP1 pleckstrin homology (PH) domain and fluorophores were then added and the mixture was incubated at RT for 15-18 hr, prior to detection in a fluorescence microplate reader (Synergy 4, BioTek UK, Bedfordshire, UK).
The results were calculated according to the formula: APC signal (emission at 665 nm)/europium signal (emission at 620 nm)×10^4. The percentage inhibition of each reaction was calculated relative to DMSO treated control, and the 50% inhibitory concentration (IC50 value) then calculated from the concentration-response curve.

d-U937 cells = assay: MTT assay, cell viability; type: cell-based, human
Experimental: PMA-differentiated U937 cells were pre-incubated with test compound (10 μg/mL) or vehicle for 4 hr in 5% FCS or 10% FCS for 24 hr. The supernatant was replaced with new media (200 μL) and MTT stock solution (10 μL, 5 mg/mL) was added to each well. After 1 hr incubation, the media were removed, 200 μL of DMSO was added to each well and the plates were shaken lightly for 1 hr prior to reading the absorbance at 550 nm. The percentage loss of cell viability was calculated for each well relative to vehicle (0.5% DMSO)-treatment.

[1] = system: LPS-induced airway neutrophilia in rats; assay: LPS-induced airway neutrophil accumulation in rats; type: in vivo, rat; conditions: i-t; for Neutrophil numbers in BALF: mean ± SEM
Experimental: Non-fasted rats were dosed with either vehicle or the test compound by intra-tracheal administration (dose volume 100 μL) at time points T=−2 h, −8 h, or −12 h with respect to the start of LPS treatment. The LPS solution (0.3 mg/mL) was aerosolised using a De Vibliss ultrasonic nebuliser 2000 (7 mL during 30 min). At eight hr after LPS challenge, the trachea was cannulated and bronchoalveolar lavage fluid (BALF) extracted by infusing and then withdrawing PBS (1 mL) into the lungs via the tracheal catheter. This procedure was repeated to provide approximately 2 mL of lavage fluid.
Total cell numbers in the BALF samples were measured using a Countess automated cell counter (Invitrogen). Cytospin smears of the BALF samples were prepared by centrifugation at 1200 rpm for 2 min at RT and stained using a DiffQuik stain system (Dade Behring) for differential cell counts. Cells were counted using oil immersion microscopy. Data are expressed as neutrophil number of cells per mL of BALF (mean±S.E.M).

PI3K α = PI3K α (Homo sapiens (Human), UniProt P42336); assay: PI3K enzyme inhibition assay (HTRF TR-FRET); type: biochemical
Source text: as §1
as §2, with “Following this incubation period, ATP (10 μM) was added to the enzyme/compound/PIP2 substrate mixture and the resulting mixture was incubated for a further 30 min at RT.” left out
(§3) The results were calculated according to the formula: APC signal (emission at 665 nm)/europium signal (emission at 620 nm)×10^4.

PI3K γ = PI3K γ (Homo sapiens (Human), UniProt P48736); assay: PI3K enzyme inhibition assay (HTRF TR-FRET); type: biochemical
Source text: as §1
as §2, with “Following this incubation period, ATP (10 μM) was added to the enzyme/compound/PIP2 substrate mixture and the resulting mixture was incubated for a further 30 min at RT.” left out
as §3

Chain of PI3K β (P42338 whole entry, species assumed): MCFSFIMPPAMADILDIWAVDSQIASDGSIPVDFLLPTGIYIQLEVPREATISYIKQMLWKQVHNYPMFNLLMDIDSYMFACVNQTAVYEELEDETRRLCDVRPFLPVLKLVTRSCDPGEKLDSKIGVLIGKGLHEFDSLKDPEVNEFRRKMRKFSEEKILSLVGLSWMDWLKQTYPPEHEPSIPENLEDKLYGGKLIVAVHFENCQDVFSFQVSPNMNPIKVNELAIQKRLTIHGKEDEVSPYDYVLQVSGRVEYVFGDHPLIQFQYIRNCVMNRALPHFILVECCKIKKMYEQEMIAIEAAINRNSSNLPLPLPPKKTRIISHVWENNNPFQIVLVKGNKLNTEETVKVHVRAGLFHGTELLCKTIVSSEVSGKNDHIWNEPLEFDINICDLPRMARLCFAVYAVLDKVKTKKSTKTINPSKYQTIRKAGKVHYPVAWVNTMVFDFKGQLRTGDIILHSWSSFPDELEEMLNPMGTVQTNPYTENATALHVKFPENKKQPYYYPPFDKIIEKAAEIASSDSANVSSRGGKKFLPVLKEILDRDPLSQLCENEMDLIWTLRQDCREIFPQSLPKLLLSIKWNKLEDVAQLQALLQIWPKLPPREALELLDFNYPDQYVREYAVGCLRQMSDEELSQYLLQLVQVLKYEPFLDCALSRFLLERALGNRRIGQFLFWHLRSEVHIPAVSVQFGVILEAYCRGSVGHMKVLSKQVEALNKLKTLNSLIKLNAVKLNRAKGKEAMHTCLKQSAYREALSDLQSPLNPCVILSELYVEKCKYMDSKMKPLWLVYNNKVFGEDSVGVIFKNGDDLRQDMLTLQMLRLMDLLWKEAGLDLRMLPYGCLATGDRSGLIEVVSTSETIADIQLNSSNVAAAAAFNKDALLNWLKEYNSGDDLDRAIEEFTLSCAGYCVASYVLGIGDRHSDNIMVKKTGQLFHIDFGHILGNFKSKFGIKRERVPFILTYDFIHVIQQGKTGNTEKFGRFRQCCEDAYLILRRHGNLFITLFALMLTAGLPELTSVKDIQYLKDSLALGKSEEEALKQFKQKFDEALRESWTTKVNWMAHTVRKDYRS
Chain of PI3K β (P27986 whole entry partner, species assumed): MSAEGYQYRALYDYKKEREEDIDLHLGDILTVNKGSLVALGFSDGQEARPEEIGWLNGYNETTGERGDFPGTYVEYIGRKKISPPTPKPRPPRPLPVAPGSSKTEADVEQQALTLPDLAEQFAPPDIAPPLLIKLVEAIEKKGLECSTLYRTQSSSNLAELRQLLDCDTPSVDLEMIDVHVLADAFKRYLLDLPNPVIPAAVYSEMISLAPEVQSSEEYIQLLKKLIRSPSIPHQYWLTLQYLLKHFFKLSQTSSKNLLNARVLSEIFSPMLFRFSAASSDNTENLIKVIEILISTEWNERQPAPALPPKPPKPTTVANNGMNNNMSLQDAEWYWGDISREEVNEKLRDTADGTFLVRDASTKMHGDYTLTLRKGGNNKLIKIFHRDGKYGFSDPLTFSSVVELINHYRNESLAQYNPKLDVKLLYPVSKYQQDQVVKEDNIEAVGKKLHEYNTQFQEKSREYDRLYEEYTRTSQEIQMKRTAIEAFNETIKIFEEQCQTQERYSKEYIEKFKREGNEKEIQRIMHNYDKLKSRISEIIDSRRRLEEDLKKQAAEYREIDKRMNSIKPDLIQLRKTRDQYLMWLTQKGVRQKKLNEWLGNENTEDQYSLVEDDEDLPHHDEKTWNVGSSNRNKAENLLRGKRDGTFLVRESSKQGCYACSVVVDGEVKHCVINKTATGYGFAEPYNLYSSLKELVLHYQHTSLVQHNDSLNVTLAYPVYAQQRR
Chain of PI3K α (P42336 whole entry, species assumed): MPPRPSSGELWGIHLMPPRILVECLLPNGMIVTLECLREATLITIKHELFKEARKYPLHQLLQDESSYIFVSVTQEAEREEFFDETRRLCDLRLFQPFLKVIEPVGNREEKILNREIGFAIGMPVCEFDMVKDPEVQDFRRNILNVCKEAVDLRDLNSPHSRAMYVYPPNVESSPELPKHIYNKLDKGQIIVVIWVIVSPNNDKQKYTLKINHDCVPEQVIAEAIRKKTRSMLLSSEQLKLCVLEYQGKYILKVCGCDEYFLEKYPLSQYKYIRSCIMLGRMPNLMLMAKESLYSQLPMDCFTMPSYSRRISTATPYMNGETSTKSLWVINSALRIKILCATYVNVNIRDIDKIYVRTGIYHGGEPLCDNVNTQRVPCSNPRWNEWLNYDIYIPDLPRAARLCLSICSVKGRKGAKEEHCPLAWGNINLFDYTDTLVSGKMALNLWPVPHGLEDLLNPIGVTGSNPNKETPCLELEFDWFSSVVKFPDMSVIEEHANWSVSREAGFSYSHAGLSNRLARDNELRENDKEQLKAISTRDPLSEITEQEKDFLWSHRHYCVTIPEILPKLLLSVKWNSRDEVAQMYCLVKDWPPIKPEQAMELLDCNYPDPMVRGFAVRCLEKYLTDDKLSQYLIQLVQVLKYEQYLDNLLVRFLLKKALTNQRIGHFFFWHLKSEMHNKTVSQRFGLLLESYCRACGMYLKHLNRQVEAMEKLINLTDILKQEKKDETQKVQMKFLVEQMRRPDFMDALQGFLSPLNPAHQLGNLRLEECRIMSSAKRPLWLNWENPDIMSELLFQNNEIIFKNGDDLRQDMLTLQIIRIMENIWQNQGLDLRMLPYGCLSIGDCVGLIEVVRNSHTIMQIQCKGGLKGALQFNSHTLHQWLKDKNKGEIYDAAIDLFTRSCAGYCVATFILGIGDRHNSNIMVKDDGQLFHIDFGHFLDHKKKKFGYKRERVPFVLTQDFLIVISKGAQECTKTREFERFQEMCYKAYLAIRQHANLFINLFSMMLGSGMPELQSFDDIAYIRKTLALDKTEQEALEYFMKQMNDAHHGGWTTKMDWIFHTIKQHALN
Chain of PI3K α (P27986 whole entry partner, species assumed): as the sequence (P27986 whole entry partner, species assumed) above
Chain of PI3K γ (P48736 whole entry, species assumed): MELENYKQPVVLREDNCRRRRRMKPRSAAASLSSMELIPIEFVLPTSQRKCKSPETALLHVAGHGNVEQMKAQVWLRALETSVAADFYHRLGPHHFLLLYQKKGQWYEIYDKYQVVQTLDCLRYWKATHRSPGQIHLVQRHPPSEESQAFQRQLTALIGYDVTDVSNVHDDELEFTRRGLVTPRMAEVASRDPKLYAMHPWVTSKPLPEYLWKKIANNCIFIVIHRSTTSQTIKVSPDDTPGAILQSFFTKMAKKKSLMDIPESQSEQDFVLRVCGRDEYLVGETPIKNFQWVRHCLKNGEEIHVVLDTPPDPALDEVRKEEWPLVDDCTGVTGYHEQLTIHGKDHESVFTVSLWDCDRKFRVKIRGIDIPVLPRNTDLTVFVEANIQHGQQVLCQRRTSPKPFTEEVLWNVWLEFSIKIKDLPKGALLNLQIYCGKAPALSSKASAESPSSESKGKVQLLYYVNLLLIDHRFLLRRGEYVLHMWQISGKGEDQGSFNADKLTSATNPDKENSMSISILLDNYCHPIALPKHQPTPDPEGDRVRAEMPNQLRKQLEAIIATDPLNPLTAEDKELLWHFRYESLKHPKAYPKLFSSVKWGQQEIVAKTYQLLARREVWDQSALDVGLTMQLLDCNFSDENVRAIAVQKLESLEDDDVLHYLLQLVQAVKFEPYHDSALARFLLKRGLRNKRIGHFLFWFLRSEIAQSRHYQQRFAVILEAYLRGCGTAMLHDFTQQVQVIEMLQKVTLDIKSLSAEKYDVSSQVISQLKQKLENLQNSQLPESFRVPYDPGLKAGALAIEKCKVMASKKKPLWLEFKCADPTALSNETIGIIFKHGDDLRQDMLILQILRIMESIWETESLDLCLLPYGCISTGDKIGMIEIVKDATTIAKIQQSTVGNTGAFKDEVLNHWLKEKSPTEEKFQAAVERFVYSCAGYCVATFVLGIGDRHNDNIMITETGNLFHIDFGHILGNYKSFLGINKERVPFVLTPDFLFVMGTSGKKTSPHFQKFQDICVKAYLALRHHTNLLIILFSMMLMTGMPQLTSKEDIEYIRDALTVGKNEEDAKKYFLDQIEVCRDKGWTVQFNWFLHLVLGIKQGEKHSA
Chain of PI3K γ (Q8WYR1 whole entry partner, species assumed): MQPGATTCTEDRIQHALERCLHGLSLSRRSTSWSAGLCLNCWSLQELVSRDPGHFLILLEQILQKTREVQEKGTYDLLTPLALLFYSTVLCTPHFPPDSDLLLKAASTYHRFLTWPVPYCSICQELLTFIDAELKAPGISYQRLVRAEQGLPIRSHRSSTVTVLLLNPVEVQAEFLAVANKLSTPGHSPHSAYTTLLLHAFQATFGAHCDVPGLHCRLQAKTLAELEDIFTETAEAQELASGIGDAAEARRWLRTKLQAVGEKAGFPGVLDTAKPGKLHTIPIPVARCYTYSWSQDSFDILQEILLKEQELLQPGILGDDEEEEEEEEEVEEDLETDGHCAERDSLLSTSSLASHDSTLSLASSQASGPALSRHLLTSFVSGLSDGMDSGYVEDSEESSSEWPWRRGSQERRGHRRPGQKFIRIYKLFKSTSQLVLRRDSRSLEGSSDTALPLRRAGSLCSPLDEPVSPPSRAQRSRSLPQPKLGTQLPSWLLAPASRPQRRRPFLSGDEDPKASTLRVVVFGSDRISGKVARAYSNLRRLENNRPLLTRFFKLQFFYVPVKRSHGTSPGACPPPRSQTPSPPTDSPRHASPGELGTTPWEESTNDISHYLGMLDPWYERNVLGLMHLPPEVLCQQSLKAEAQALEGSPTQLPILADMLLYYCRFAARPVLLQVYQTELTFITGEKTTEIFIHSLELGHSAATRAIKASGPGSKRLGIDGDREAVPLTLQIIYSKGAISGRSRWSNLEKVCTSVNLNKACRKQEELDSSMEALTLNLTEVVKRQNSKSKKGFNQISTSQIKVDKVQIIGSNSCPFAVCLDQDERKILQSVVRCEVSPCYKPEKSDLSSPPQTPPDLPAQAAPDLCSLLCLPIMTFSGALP

## COCCOCCOCC#Cc1cccc2nc(Cn3nc(-c4cc(O)cc(F)c4)c4c(N)ncnc43)n(Cc3ccccc3C(F)(F)F)c(=O)c12 [Compound (I), 2-((4-Amino-3-(3-fluoro-5-hydroxyphenyl)-1H-pyrazolo[3,4-d]pyrimidin-1-yl)methyl)-5-(3-(2-(2-methoxyethoxy)ethoxy)prop-1-yn-1-yl)-3-(2-(trifluoromethyl)benzyl)quinazolin-4(3H)-one]
PI3K β
  inhibitory activity versus PI3K β in enzyme assays (in words): low inhibitory activity
PI3K β; read-out: IC50 Values for PI3K inhibition at isozyme indicated, PI3K β
  IC50: 4.89 µM
PI3K β; read-out: PI3 Kinase Inhibition IC50 value at state isozyme, β
  IC50: 4.89 µM
d-U937 cells
  effects on cell viability (in words): No effects
d-U937 cells; 10 μg/mL, 4 hr
  Cell Viability MTT Assay in d-U937 cells at 4 hr: −ve (−ve indicates a value of <30% inhibition at 10 μg/mL)
d-U937 cells; 10 μg/mL, 24 hr
  Cell Viability MTT Assay in d-U937 cells at 24 hr: −ve (−ve indicates a value of <30% inhibition at 10 μg/mL)
[1]; 0.05 mg/mL, pre-dose 2 hr
  % inhibition of neutrophil numbers in BALF: 9%
  Neutrophil numbers in BALF: 13.2 ± 2.3 x10^5/mL
[1]; 0.2 mg/mL, pre-dose 2 hr
  % inhibition of neutrophil numbers in BALF: 58%
  Neutrophil numbers in BALF: 6.3 ± 1.6 x10^5/mL
[1]; 0.2 mg/mL, pre-dose 8 hr
  % inhibition of neutrophil numbers in BALF: 33%
  Neutrophil numbers in BALF: 10.1 ± 1.8 x10^5/mL
[1]; 0.2 mg/mL, pre-dose 12 h
  % inhibition of neutrophil numbers in BALF: 10%
  Neutrophil numbers in BALF: 13.6 ± 2.7 x10^5/mL
[1]; 1.0 mg/mL, pre-dose 2 hr
  % inhibition of neutrophil numbers in BALF: 73%
  Neutrophil numbers in BALF: 4.1 ± 0.7 x10^5/mL
PI3K α
  inhibitory activity versus PI3K α in enzyme assays (in words): no inhibitory activity
PI3K α; read-out: IC50 Values for PI3K inhibition at isozyme indicated, PI3K α
  IC50: > 13.9 µM
PI3K α; read-out: PI3 Kinase Inhibition IC50 value at state isozyme, α
  IC50: > 13.9 µM
PI3K γ; read-out: IC50 Values for PI3K inhibition at isozyme indicated, PI3K γ
  IC50: 0.028 µM
PI3K γ; read-out: PI3 Kinase Inhibition IC50 value at state isozyme, γ
  IC50: 0.028 µM
